According to PubChem BioAssay (NCI):
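Step 1: Grow cells in 96-well plates. Step 2: Expose to compound for 48 hours at 5 concentrations. Step 3: Interpolate endpoints linearly; if unreached, use highest concentration. The concentration for 50% growth inhibition is given as GI50. TGI denotes the concentration required for complete inhibition of growth.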

Tests used:
Assay in all cases: growth of human tumour cells (NCI), 48 h
786-0 renal = tested on: 786-0 renal
A498 renal = tested on: A498 renal
A549 NSCLC = tested on: A549 NSCLC
ACHN renal = tested on: ACHN renal
BT-549 breast = tested on: BT-549 breast
CAKI-1 renal = tested on: CAKI-1 renal
CCRF-CEM leukemia = tested on: CCRF-CEM leukemia
COLO 205 colon = tested on: COLO 205 colon
DU-145 prostate = tested on: DU-145 prostate
EKVX NSCLC = tested on: EKVX NSCLC
HCC-2998 colon = tested on: HCC-2998 colon
HCT-116 colon = tested on: HCT-116 colon
HCT-15 colon = tested on: HCT-15 colon
HL-60(TB) leukemia = tested on: HL-60(TB) leukemia
HOP-62 NSCLC = tested on: HOP-62 NSCLC
HOP-92 NSCLC = tested on: HOP-92 NSCLC
HS 578T breast = tested on: HS 578T breast
HT29 colon = tested on: HT29 colon
IGROV1 ovarian = tested on: IGROV1 ovarian
K-562 leukemia = tested on: K-562 leukemia
KM12 colon = tested on: KM12 colon
LOX IMVI melanoma = tested on: LOX IMVI melanoma
M14 melanoma = tested on: M14 melanoma
MALME-3M melanoma = tested on: MALME-3M melanoma
MCF7 breast = tested on: MCF7 breast
MDA-MB-231 breast = tested on: MDA-MB-231 breast
MDA-MB-435 = tested on: MDA-MB-435
MOLT-4 leukemia = tested on: MOLT-4 leukemia
NCI-H226 lung = tested on: NCI-H226 lung
NCI-H23 lung = tested on: NCI-H23 lung
NCI-H460 lung = tested on: NCI-H460 lung
NCI-H522 lung = tested on: NCI-H522 lung
NCI/ADR-RES ovarian = tested on: NCI/ADR-RES ovarian
OVCAR-3 ovarian = tested on: OVCAR-3 ovarian
OVCAR-4 ovarian = tested on: OVCAR-4 ovarian
OVCAR-5 ovarian = tested on: OVCAR-5 ovarian
OVCAR-8 ovarian = tested on: OVCAR-8 ovarian
PC-3 prostate = tested on: PC-3 prostate
RPMI-8226 leukemia = tested on: RPMI-8226 leukemia
RXF 393 renal = tested on: RXF 393 renal
SF-268 CNS = tested on: SF-268 CNS
SF-295 CNS = tested on: SF-295 CNS
SF-539 CNS = tested on: SF-539 CNS
SK-MEL-2 melanoma = tested on: SK-MEL-2 melanoma
SK-MEL-28 melanoma = tested on: SK-MEL-28 melanoma
SK-MEL-5 melanoma = tested on: SK-MEL-5 melanoma
SK-OV-3 ovarian = tested on: SK-OV-3 ovarian
SN12C renal = tested on: SN12C renal
SNB-19 CNS = tested on: SNB-19 CNS
SNB-75 CNS = tested on: SNB-75 CNS
SR leukemia = tested on: SR leukemia
SW-620 colon = tested on: SW-620 colon
T-47D breast = tested on: T-47D breast
TK-10 renal = tested on: TK-10 renal
U251 CNS = tested on: U251 CNS
UACC-257 melanoma = tested on: UACC-257 melanoma
UACC-62 melanoma = tested on: UACC-62 melanoma
UO-31 renal = tested on: UO-31 renal

Work on `COc1ccc2c(c1)C(C)Cc1c(Cl)ncnc1N2C` (stereo unspecified) yielded a GI50 (786-0 renal) of 0.309 µM, a TGI (786-0 renal) of 5.45 µM and a GI50 (A498 renal) of 0.23 µM. The TGI (A498 renal) was 0.744 µM, the GI50 (A549 NSCLC) was 0.432 µM and the TGI (A549 NSCLC) was > 100 µM. The GI50 (ACHN renal) was 0.852 µM, the TGI (ACHN renal) was > 100 µM and the GI50 (BT-549 breast) was 0.433 µM. For the same compound, the TGI (BT-549 breast) was 18.4 µM, the GI50 (CAKI-1 renal) was 1.53 µM and the TGI (CAKI-1 renal) was > 100 µM. For the same compound, the GI50 (CCRF-CEM leukemia) was 2.14 µM, the TGI (CCRF-CEM leukemia) was > 55.8 µM and the GI50 (COLO 205 colon) was 0.261 µM. For the same compound, the TGI (COLO 205 colon) was 0.777 µM, the GI50 (DU-145 prostate) was 3.41 µM and the TGI (DU-145 prostate) was > 74.1 µM. It also gave a GI50 (EKVX NSCLC) of 0.44 µM, a TGI (EKVX NSCLC) of 29.9 µM and a GI50 (HCC-2998 colon) of 0.402 µM. The TGI (HCC-2998 colon) was 14.3 µM, the GI50 (HCT-116 colon) was 0.434 µM and the TGI (HCT-116 colon) was 4.56 µM. For the same compound, the GI50 (HCT-15 colon) was 0.402 µM, the TGI (HCT-15 colon) was > 32.3 µM and the GI50 (HL-60(TB) leukemia) was 2 µM. The TGI (HL-60(TB) leukemia) was 7.06 µM, the GI50 (HOP-62 NSCLC) was 0.475 µM and the TGI (HOP-62 NSCLC) was 20.1 µM. For the same compound, the GI50 (HOP-92 NSCLC) was 1.25 µM, the TGI (HOP-92 NSCLC) was 7.5 µM and the GI50 (HS 578T breast) was 0.533 µM. It also gave a TGI (HS 578T breast) of 38.1 µM, a GI50 (HT29 colon) of 0.33 µM and a TGI (HT29 colon) of 8.13 µM. The GI50 (IGROV1 ovarian) was 1.96 µM, the TGI (IGROV1 ovarian) was > 69.6 µM and the GI50 (K-562 leukemia) was 2.08 µM. The TGI (K-562 leukemia) was > 100 µM, the GI50 (KM12 colon) was 0.298 µM and the TGI (KM12 colon) was 1.37 µM. It also gave a GI50 (LOX IMVI melanoma) of 0.218 µM, a TGI (LOX IMVI melanoma) of 0.517 µM and a GI50 (M14 melanoma) of 0.345 µM. For the same compound, the TGI (M14 melanoma) was 7.99 µM, the GI50 (MALME-3M melanoma) was 0.294 µM and the TGI (MALME-3M melanoma) was 3.63 µM. For the same compound, the GI50 (MCF7 breast) was 0.328 µM, the TGI (MCF7 breast) was > 21.9 µM and the GI50 (MDA-MB-231 breast) was 0.365 µM. It also gave a TGI (MDA-MB-231 breast) of 2.35 µM, a GI50 (MDA-MB-435) of 0.355 µM and a TGI (MDA-MB-435) of 1.81 µM. For the same compound, the GI50 (MOLT-4 leukemia) was 1.17 µM, the TGI (MOLT-4 leukemia) was > 22.6 µM and the GI50 (NCI-H226 lung) was 0.213 µM. It also gave a TGI (NCI-H226 lung) of 0.481 µM, a GI50 (NCI-H23 lung) of 0.449 µM and a TGI (NCI-H23 lung) of 11.5 µM. The GI50 (NCI-H460 lung) was 0.493 µM, the TGI (NCI-H460 lung) was > 100 µM and the GI50 (NCI-H522 lung) was 1.41 µM. The TGI (NCI-H522 lung) was 4.02 µM, the GI50 (NCI/ADR-RES ovarian) was 0.388 µM and the TGI (NCI/ADR-RES ovarian) was 11.2 µM. It also gave a GI50 (OVCAR-3 ovarian) of 0.268 µM, a TGI (OVCAR-3 ovarian) of 0.75 µM and a GI50 (OVCAR-4 ovarian) of 0.395 µM. For the same compound, the TGI (OVCAR-4 ovarian) was > 100 µM, the GI50 (OVCAR-5 ovarian) was 0.643 µM and the TGI (OVCAR-5 ovarian) was > 100 µM. The GI50 (OVCAR-8 ovarian) was 0.463 µM, the TGI (OVCAR-8 ovarian) was 25.2 µM and the GI50 (PC-3 prostate) was 0.424 µM. The TGI (PC-3 prostate) was > 59.1 µM, the GI50 (RPMI-8226 leukemia) was 0.629 µM and the TGI (RPMI-8226 leukemia) was 16 µM. For the same compound, the GI50 (RXF 393 renal) was 0.42 µM, the TGI (RXF 393 renal) was 3.83 µM and the GI50 (SF-268 CNS) was 0.359 µM. The TGI (SF-268 CNS) was 22.9 µM, the GI50 (SF-295 CNS) was 0.375 µM and the TGI (SF-295 CNS) was > 48.1 µM. The GI50 (SF-539 CNS) was 0.471 µM, the TGI (SF-539 CNS) was 18.8 µM and the GI50 (SK-MEL-2 melanoma) was 0.405 µM. For the same compound, the TGI (SK-MEL-2 melanoma) was 2.12 µM, the GI50 (SK-MEL-28 melanoma) was 0.368 µM and the TGI (SK-MEL-28 melanoma) was 46.1 µM. For the same compound, the GI50 (SK-MEL-5 melanoma) was 0.188 µM, the TGI (SK-MEL-5 melanoma) was 0.353 µM and the GI50 (SK-OV-3 ovarian) was 0.504 µM. The TGI (SK-OV-3 ovarian) was 17.3 µM, the GI50 (SN12C renal) was 1.29 µM and the TGI (SN12C renal) was 23.6 µM. For the same compound, the GI50 (SNB-19 CNS) was 0.732 µM, the TGI (SNB-19 CNS) was > 100 µM and the GI50 (SNB-75 CNS) was 0.557 µM. The TGI (SNB-75 CNS) was > 54.6 µM, the GI50 (SR leukemia) was 0.45 µM and the TGI (SR leukemia) was > 19.8 µM. For the same compound, the GI50 (SW-620 colon) was 0.377 µM, the TGI (SW-620 colon) was 17.8 µM and the GI50 (T-47D breast) was 2.02 µM. The TGI (T-47D breast) was 20.5 µM, the GI50 (TK-10 renal) was 1.06 µM and the TGI (TK-10 renal) was 18.8 µM. The GI50 (U251 CNS) was 0.478 µM, the TGI (U251 CNS) was > 86.4 µM and the GI50 (UACC-257 melanoma) was 0.471 µM. The TGI (UACC-257 melanoma) was 23.3 µM, the GI50 (UACC-62 melanoma) was 0.445 µM and the TGI (UACC-62 melanoma) was 19 µM. For the same compound, the GI50 (UO-31 renal) was 0.364 µM and the TGI (UO-31 renal) was 42 µM.
